How the values were obtained:
Assay in all cases: Test B pre-/postemergence plant response
Type in all cases: in vivo
[1] = tested on: corn (Zea mays)
Outline: (§1)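 Seeds were sown and sprayed preemergence, while plants at 2 to 18 cm (1- to 4-leaf stage) got postemergence sprays. Compounds were formulated in a non-phytotoxic solvent mixture with surfactant. After 13 to 15 days in a greenhouse, injury was rated visually against untreated controls, 0 (no effect) to 100 (complete control).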

[2] = tested on: giant foxtail (Setaria faberii)
Outline: as §1

[3] = tested on: catchweed bedstraw (Galium aparine); settings: Preemergence
Outline: as §1

[4] = tested on: surinam grass (Brachiaria decumbens)
Outline: as §1

[5] = tested on: lambsquarters (Chenopodium album)
Outline: as §1

[6] = tested on: wild oat (Avena fatua)
Outline: as §1

[7] = tested on: goosegrass (Eleusine indica)
Outline: as §1

[8] = tested on: green foxtail (Setaria viridis)
Outline: as §1

[9] = tested on: common ragweed (Ambrosia elation)
Outline: as §1

[10] = tested on: morningglory (Ipomoea coccinea)
Outline: as §1

[11] = tested on: woolly cupgrass (Eriochloa villosa)
Outline: as §1

[12] = tested on: pigweed (Amaranthus retroflexus)
Outline: as §1

[13] = tested on: blackgrass (Alopecurus myosuroides); settings: for Blackgrass plant response rating: 8 g ai/ha
Outline: as §1

[14] = tested on: downy bromegrass (Bromus tectorum); settings: for Bromegrass, Downy plant response rating: 8 g ai/ha
Outline: as §1

[15] = Preemergence, 31 g ai/ha, 0 to 100 scale, 0 no effect, 100 complete control
[16] = Preemergence, 62 g ai/ha, scale 0 to 100
[17] = Preemergence, 8 g ai/ha, scale 0 to 100
[18] = Preemergence, 16 g ai/ha, scale 0 to 100
[19] = Preemergence, 31 g ai/ha, scale 0 to 100 (0 no effect, 100 complete control)
[20] = Preemergence, 62 g ai/ha, 0 to 100 scale, 0 no effect, 100 complete control
[21] = Preemergence, 16 g ai/ha, scale 0 to 100 (0 no effect, 100 complete control)
[22] = 8 g ai/ha, postemergence, 0-100 scale
[23] = Postemergence, 16 g ai/ha, scale 0 to 100
[24] = Postemergence, 31 g ai/ha, scale 0 to 100
[25] = Postemergence, 62 g ai/ha, scale 0 to 100, 0 no effect, 100 complete control

Cc1cc(-c2ccc(Cl)cc2)nn1-c1c(OS(=O)(=O)c2ccc(Cl)s2)cnn(C)c1=O [Compound 55]
Plant response rating, Corn [1, 15]: 80
Plant response rating, Corn [1, 16]: 95
Corn plant response rating [1, 17]: 0
Corn plant response rating [1, 18]: 0
Plant response rating, Foxtail, Giant [2, 15]: 100
Plant response rating, Foxtail, Giant [2, 16]: 100
Foxtail, Giant plant response rating [2, 17]: 90
Foxtail, Giant plant response rating [2, 18]: 98
Plant response rating, Galium ([3]; 31 g ai/ha, 0 to 100 scale, 0 no effect, 100 complete control): 0
Plant response rating, Galium ([3]; 62 g ai/ha, scale 0 to 100): 0
Galium plant response rating ([3]; 8 g ai/ha, scale 0 to 100): 0
Plant response rating, Surinam Grass [4, 19]: 100
Plant response rating, Surinam Grass [4, 20]: 100
Surinam Grass plant response rating [4, 17]: 15
Surinam Grass plant response rating [4, 18]: 50
Plant response rating, Lambsquarters [5, 15]: 0
Plant response rating, Lambsquarters [5, 16]: 0
Lambsquarters plant response rating [5, 17]: 0
Lambsquarters plant response rating [5, 18]: 0
Plant response rating, Oat, Wild [6, 19]: 35
Plant response rating, Oat, Wild [6, 16]: 70
Oat, Wild plant response rating [6, 17]: 0
Oat, Wild plant response rating [6, 18]: 0
Plant response rating, Goosegrass [7, 15]: 98
Plant response rating, Goosegrass [7, 16]: 100
Goosegrass plant response rating [7, 17]: 55
Goosegrass plant response rating [7, 18]: 90
Plant response rating, Foxtail, Green [8, 15]: 100
Plant response rating, Foxtail, Green [8, 16]: 100
Foxtail, Green plant response rating [8, 17]: 0
Foxtail, Green plant response rating [8, 18]: 90
Plant response rating, Ragweed [9, 19]: 0
Plant response rating, Ragweed [9, 16]: 0
Ragweed plant response rating [9, 17]: 0
Ragweed plant response rating [9, 18]: 0
Plant response rating, Morningglory [10, 19]: 0
Plant response rating, Morningglory [10, 16]: 0
Morningglory plant response rating [10, 17]: 0
Morningglory plant response rating [10, 18]: 0
Plant response rating, Cupgrass, Woolly [11, 15]: 100
Plant response rating, Cupgrass, Woolly [11, 16]: 100
Cupgrass, Woolly plant response rating [11, 17]: 15
Cupgrass, Woolly plant response rating [11, 18]: 80
Plant response rating, Pigweed [12, 19]: 0
Plant response rating, Pigweed [12, 16]: 0
Pigweed plant response rating [12, 17]: 0
Pigweed plant response rating [12, 18]: 0
Plant response rating, Blackgrass [13, 21]: 80
Plant response rating, Blackgrass [13, 15]: 100
Plant response rating, Blackgrass [13, 16]: 100
Blackgrass plant response rating ([13]; Preemergence, scale 0 to 100): 0
Plant response rating, Bromegrass, Downy [14, 21]: 0
Plant response rating, Bromegrass, Downy [14, 15]: 30
Plant response rating, Bromegrass, Downy [14, 16]: 60
Bromegrass, Downy plant response rating ([14]; Preemergence, scale 0 to 100): 0

CCCC(=O)Oc1cnn(C)c(=O)c1-n1nc(-c2ccc(Cl)cc2)cc1C [Compound 56]
Corn plant response rating [1, 22]: 75
Plant response rating, Corn [1, 23]: 85
Plant response rating, Corn [1, 24]: 95
Plant response rating, Corn [1, 25]: 95
Plant response rating, Corn [1, 19]: 95
Plant response rating, Corn [1, 20]: 95
Corn plant response rating [1, 17]: 0
Corn plant response rating [1, 18]: 10
Foxtail, Giant plant response rating [2, 22]: 75
Plant response rating, Foxtail, Giant [2, 23]: 98
Plant response rating, Foxtail, Giant [2, 24]: 98
Plant response rating, Foxtail, Giant [2, 25]: 100
Plant response rating, Foxtail, Giant [2, 19]: 100
Plant response rating, Foxtail, Giant [2, 20]: 100
Foxtail, Giant plant response rating [2, 17]: 95
Foxtail, Giant plant response rating [2, 18]: 100
Plant response rating, Galium ([3]; 31 g ai/ha, scale 0 to 100 (0 no effect, 100 complete control)): 0
Plant response rating, Galium ([3]; 62 g ai/ha, 0 to 100 scale, 0 no effect, 100 complete control): 0
Galium plant response rating ([3]; 8 g ai/ha, scale 0 to 100): 0
Galium plant response rating ([3]; 16 g ai/ha, scale 0 to 100): 0
Surinam Grass plant response rating [4, 22]: 70
Plant response rating, Surinam Grass [4, 23]: 75
Plant response rating, Surinam Grass [4, 24]: 98
Plant response rating, Surinam Grass [4, 25]: 100
Plant response rating, Surinam Grass [4, 19]: 100
Plant response rating, Surinam Grass [4, 20]: 100
Surinam Grass plant response rating [4, 17]: 75
Surinam Grass plant response rating [4, 18]: 90
Lambsquarters plant response rating [5, 22]: 0
Plant response rating, Lambsquarters [5, 23]: 0
Plant response rating, Lambsquarters [5, 24]: 0
Plant response rating, Lambsquarters [5, 25]: 0
Plant response rating, Lambsquarters [5, 19]: 0
Plant response rating, Lambsquarters [5, 20]: 20
Lambsquarters plant response rating [5, 17]: 0
Lambsquarters plant response rating [5, 18]: 0
Oat, Wild plant response rating [6, 22]: 5
Plant response rating, Oat, Wild [6, 23]: 85
Plant response rating, Oat, Wild [6, 24]: 90
Plant response rating, Oat, Wild [6, 25]: 90
Plant response rating, Oat, Wild [6, 19]: 60
Plant response rating, Oat, Wild [6, 20]: 90
Oat, Wild plant response rating [6, 17]: 0
Oat, Wild plant response rating [6, 18]: 50
Goosegrass plant response rating [7, 22]: 60
Plant response rating, Goosegrass [7, 23]: 65
Plant response rating, Goosegrass [7, 24]: 75
Plant response rating, Goosegrass [7, 25]: 98
Plant response rating, Goosegrass [7, 19]: 98
Plant response rating, Goosegrass [7, 20]: 100
Goosegrass plant response rating [7, 17]: 75
Goosegrass plant response rating [7, 18]: 80
Foxtail, Green plant response rating [8, 22]: 50
Plant response rating, Foxtail, Green [8, 23]: 90
Plant response rating, Foxtail, Green [8, 24]: 90
Plant response rating, Foxtail, Green [8, 25]: 100
Plant response rating, Foxtail, Green [8, 19]: 100
Plant response rating, Foxtail, Green [8, 20]: 100
Foxtail, Green plant response rating [8, 17]: 65
Foxtail, Green plant response rating [8, 18]: 65
Ragweed plant response rating [9, 22]: 0
Plant response rating, Ragweed [9, 23]: 0
Plant response rating, Ragweed [9, 24]: 0
Plant response rating, Ragweed [9, 25]: 0
Plant response rating, Ragweed [9, 19]: 0
Plant response rating, Ragweed [9, 20]: 0
Ragweed plant response rating [9, 17]: 0
Ragweed plant response rating [9, 18]: 0
Morningglory plant response rating [10, 22]: 0
Plant response rating, Morningglory [10, 23]: 0
Plant response rating, Morningglory [10, 24]: 0
Plant response rating, Morningglory [10, 25]: 0
Plant response rating, Morningglory [10, 19]: 0
Plant response rating, Morningglory [10, 20]: 0
Morningglory plant response rating [10, 17]: 0
Morningglory plant response rating [10, 18]: 0
Cupgrass, Woolly plant response rating [11, 22]: 95
Plant response rating, Cupgrass, Woolly [11, 23]: 100
Plant response rating, Cupgrass, Woolly [11, 24]: 100
Plant response rating, Cupgrass, Woolly [11, 25]: 100
Plant response rating, Cupgrass, Woolly [11, 19]: 100
Plant response rating, Cupgrass, Woolly [11, 20]: 100
Cupgrass, Woolly plant response rating [11, 17]: 0
Cupgrass, Woolly plant response rating [11, 18]: 80
Pigweed plant response rating [12, 22]: 0
Plant response rating, Pigweed [12, 23]: 0
Plant response rating, Pigweed [12, 24]: 0
Plant response rating, Pigweed [12, 25]: 0
Plant response rating, Pigweed [12, 19]: 0
Plant response rating, Pigweed [12, 20]: 0
Pigweed plant response rating [12, 17]: 0
Pigweed plant response rating [12, 18]: 0
Blackgrass plant response rating ([13]; postemergence, 0-100 scale): 0
Plant response rating, Blackgrass [13, 23]: 65
Plant response rating, Blackgrass [13, 24]: 95
Plant response rating, Blackgrass [13, 25]: 98
Plant response rating, Blackgrass [13, 21]: 60
Plant response rating, Blackgrass [13, 19]: 98
Plant response rating, Blackgrass [13, 20]: 98
Blackgrass plant response rating ([13]; Preemergence, scale 0 to 100): 40
Bromegrass, Downy plant response rating ([14]; postemergence, 0-100 scale): 0
Plant response rating, Bromegrass, Downy [14, 23]: 0
Plant response rating, Bromegrass, Downy [14, 24]: 0
Plant response rating, Bromegrass, Downy [14, 25]: 0
Plant response rating, Bromegrass, Downy [14, 21]: 20
Plant response rating, Bromegrass, Downy [14, 19]: 45
Plant response rating, Bromegrass, Downy [14, 20]: 75
Bromegrass, Downy plant response rating ([14]; Preemergence, scale 0 to 100): 0
